# From patent US5690906A (The Trustees of the University of Pennsylvania, priority 1995, dated 1997)
# Read-outs that look alike come from different tables or passages of the source.
# Key:
# D2 dopamine receptor = target: T1, D2 dopamine receptor (Rattus norvegicus, UniProt P61169); experiment: Inhibition of [^125 I]NCQ298 binding to D2 dopamine receptors expressed in Sf9 cells; conditions: for HC D2: Table 4, Hill coefficient
# T1 construct: made in house; host or cells: Sf9 insect cells infected with recombinant baculovirus (AcMNPVrD2L or AcMNPVrD2S), membrane homogenates
# T1 sequence (P61169 whole entry): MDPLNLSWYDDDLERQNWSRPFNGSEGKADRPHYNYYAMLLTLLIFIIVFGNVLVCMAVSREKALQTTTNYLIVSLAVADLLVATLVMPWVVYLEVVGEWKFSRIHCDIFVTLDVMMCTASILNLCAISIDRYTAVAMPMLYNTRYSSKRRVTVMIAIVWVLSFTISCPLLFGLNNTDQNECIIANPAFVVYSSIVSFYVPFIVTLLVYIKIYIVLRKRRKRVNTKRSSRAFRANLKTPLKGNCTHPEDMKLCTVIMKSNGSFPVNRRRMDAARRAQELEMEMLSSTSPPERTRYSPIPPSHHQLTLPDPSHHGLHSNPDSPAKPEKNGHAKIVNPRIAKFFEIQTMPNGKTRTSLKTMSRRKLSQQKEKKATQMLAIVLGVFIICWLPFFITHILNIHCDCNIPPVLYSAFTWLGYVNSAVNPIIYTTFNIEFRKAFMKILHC
# D3 dopamine receptor = target: T2, D3 dopamine receptor (Rattus norvegicus, UniProt P19020); experiment: Inhibition of [^125 I]NCQ298 binding to D3 dopamine receptors expressed in Sf9 cells; conditions: for HC D3: Table 4, Hill coefficient; for Ratio D2/D3: Ki(D2)/Ki(D3)
# T2 construct: made in house; host or cells: Sf9 insect cells infected with recombinant baculovirus AcMNPVrD3, membrane homogenates
# T2 sequence (P19020 whole entry): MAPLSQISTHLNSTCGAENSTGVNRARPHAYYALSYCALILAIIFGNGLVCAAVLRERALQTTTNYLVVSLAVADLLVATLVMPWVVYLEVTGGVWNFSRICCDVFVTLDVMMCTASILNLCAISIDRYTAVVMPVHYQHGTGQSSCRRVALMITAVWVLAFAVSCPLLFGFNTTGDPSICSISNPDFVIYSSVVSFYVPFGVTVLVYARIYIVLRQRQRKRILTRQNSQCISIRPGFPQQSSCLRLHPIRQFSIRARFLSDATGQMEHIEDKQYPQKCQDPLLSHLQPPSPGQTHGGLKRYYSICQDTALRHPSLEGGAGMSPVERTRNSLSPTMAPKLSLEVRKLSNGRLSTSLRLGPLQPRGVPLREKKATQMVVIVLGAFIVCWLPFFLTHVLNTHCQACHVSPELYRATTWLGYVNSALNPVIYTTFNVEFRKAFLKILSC
# Description: The construction of pVL1393-rD3 was previously described. […] An aliquot of membranes was used for radioligand binding.
# Membranes from AcMNPV-rD3 infected Sf9 cells were prepared. […] Assays were incubated at 37° C. for 20 min. then filtered and washed as described above.
# [1] = In-vivo biodistribution in rats; parameters: species or system rat; Brain uptake: unit not given here; conditions: for Brain uptake: table; for tissue uptake at 2 min / tissue uptake at 1 h / tissue uptake at 0.5 h: rat
# Description: In-vivo biodistribution studies were performed in rats^27 with the two hydroxylated radioligands: [^123 I]-7-OH-DPAT and [^123 I]-7-OH-PIPAT in rats. Concerning [^123 I]-7-OH-DPAT rats were killed either two minutes or thirty minutes post injection and the data are reported in Table 5. […] On the contrary, [^123 I]-7-OH-PIPAT presented a very high brain uptake: 11.812, 9,458 and 5.433% dose/gram of tissue at 2, 30 and 60 min. respectively (See Table 6). […] However, the brain regions, rich in D3 receptors such as Calleja island and olfactory tubercle need to be more deeply investigated.
# [2] = target: D3 receptors (expressed in Sf9 cells) (Rattus norvegicus, UniProt P19020); conditions: for Hill Co.: Table 3, [^125 I]trans-7-OH-PIPAT competition; for Hill Co. / Ki: 37° C., 120 mM NaCl; for Ki: ± SE, [^125 I]trans-7-OH-PIPAT 0.1-0.2 nM; for affinity for the D3 receptor: competition with [^125 I]trans-7-OH-PIPAT
# D3 receptors (expressed in Sf9 cells), sequence (P19020 whole entry): as above
# Description: Plasmid DNA was isolated by alkaline dialysis and purified by CsCl density gradient centrifugation and overnight dialysis for transfection of Sf9 cells. […] A monolayer of Sf9 cells (approximately 2×10^6 cells/T25 plate) was cotransfected by calcium phosphate precipitation, with 1 mg of AcMNPV DNA (provided by Dr. Max Summers, Texas A&M University, College Station, Tex.) and 2 mg of recombinant transfer vector DNA. […] Putative recombinant viral plaques were chosen by visual screening for occlusion-negative plaques and used to infect 1×10^6 Sf9 cells in a 6-well plate (CoStar, Cambridge, Mass.). Four days after infection, cells were harvested and membranes were prepared. An aliquot of membranes was used for radioligand binding. […] The membrane homogenates of AcMNPVrD3 infected Sf9 cells were prepared as described. Briefly, the harvested cells were centrifuged, resuspended and homogenized in buffer containing 50 mM Tris, pH7.4, 150mM NaCl, 10 mM EDTA and a mixture of protease inhibitors (1 mg/ml aprotinin, 1 mg/ml leupeptin, 1 mg/ml soybean trypsin inhibitor, 10 mg/ml PMSF). The final pellets obtained were resuspended in the same buffer and kept at -20° C. for radioligand binding assays.
# Binding assays were performed in glass tubes (12×75 mm) in a final volume of 0.2 ml. The buffer used for the dilution contained 50 mM Tris, pH 7.4, and the protease inhibitors mixture. […] The competition experiments were performed in the presence of 120 mM NaCl. […] After incubation for 30 min at 37° C. or 90 min at 25° C., the bound ligand was separated from the free ligand by filtration through glass fiber filters No. 25 (Schleicher & Schuell, Keene, N.H.) soaked with 0.2% protamine free base. The filters were then washed twice with 4 ml of ice-cold buffer (containing 50 mM Tris-HCl, pH 7.4) and the radioactivity on the filters was counted in a gamma counter (Packard 5000) with 70% efficiency.
# [3] = Table 4 and its discussion, [^125 I]-NCQ298 0.05 nM, 37° C., 20 min, read-out: Ki D2
# [4] = Table 4 and its discussion, [^125 I]-NCQ298 0.1 nM, 37° C., 20 min, read-out: Ki D3
compound,measurement,setting,value
CCCN(C/C=C/I)C1CCc2ccc(O)cc2C1 (stereo not drawn) [trans-7-OH-PIPAT],Ki,"D2 dopamine receptor; Table 2, ± SE, [^125 I]NCQ298, Sf9 cells, read-out: Ki D2",0.265 ± 0.036 µM
same,HC D2,D2 dopamine receptor,0.96
same,Ki,D2 dopamine receptor; [3],0.265 ± 0.048 µM
"CCCN(C/C=C/I)C1CCc2ccc(OC)cc2C1 (stereo not drawn) [7-MeO-PIPAT, 7Methoxy-2-[N-3'-(1'-Iodo-1'E-Propenyl)-N-n-Propylamino]tetralin]",HC D2,D2 dopamine receptor,1.22
same,Ki,D2 dopamine receptor; [3],1.38 ± 0.193 µM
same,HC D3,D3 dopamine receptor,0.93
same,Ratio D2/D3,D3 dopamine receptor; Table 4 and its discussion,5.4
same,Ki,D3 dopamine receptor; [4],0.257 ± 0.031 µM
CCCN(C/C=C/[123I])C1CCc2ccc(O)cc2C1 (stereo not drawn) [[^123 I]-7-OH-PIPAT],Blood uptake,[1]; 2 min,2.621 ± 0.298
same,Heart uptake,[1]; 2 min,1.780 ± 0.231
same,Kidney uptake,[1]; 2 min,5.887 ± 1.088
same,Liver uptake,[1]; 2 min,9.687 ± 3.302
same,Lung uptake,[1]; 2 min,5.394 ± 0.589
same,Muscle uptake,[1]; 2 min,33.199 ± 11.64
same,Skin uptake,[1]; 2 min,8.816 ± 1.656
same,Spleen uptake,[1]; 2 min,0.449 ± 0.161
same,Thyroid uptake,[1]; 2 min,0.174 ± 0.012
same,Brain uptake,[1]; 2 min,2.612 ± 0.498
same,Blood uptake,[1]; 30 min,0.785 ± 0.089
same,Heart uptake,[1]; 30 min,0.203 ± 0.054
same,Kidney uptake,[1]; 30 min,0.978 ± 0.276
same,Liver uptake,[1]; 30 min,3.573 ± 0.569
same,Lung uptake,[1]; 30 min,0.768 ± 0.146
same,Muscle uptake,[1]; 30 min,23.546 ± 8.469
same,Skin uptake,[1]; 30 min,6.962 ± 0.362
same,Spleen uptake,[1]; 30 min,0.284 ± 0.011
same,Thyroid uptake,[1]; 30 min,0.045 ± 0.007
same,Brain uptake,[1]; 30 min,0.660 ± 0.096
same,Blood uptake,[1]; 60 min,0.742 ± 0.075
same,Heart uptake,[1]; 60 min,0.100 ± 0.010
same,Kidney uptake,[1]; 60 min,1.042 ± 0.114
same,Liver uptake,[1]; 60 min,2.335 ± 1.391
same,Lung uptake,[1]; 60 min,0.437 ± 0.038
same,Muscle uptake,[1]; 60 min,12.882 ± 3.927
same,Skin uptake,[1]; 60 min,6.148 ± 0.922
same,Spleen uptake,[1]; 60 min,0.180 ± 0.023
same,Thyroid uptake,[1]; 60 min,0.096 ± 0.067
same,Brain uptake,[1]; 60 min,0.321 ± 0.037
same,tissue uptake at 2 min,"[1]; brain, 2 min, read-out: brain uptake",11.8 %ID/g
same,tissue uptake at 1 h,"[1]; brain, 60 min, read-out: brain uptake",5.43 %ID/g
same,tissue uptake at 2 min,"[1]; cerebellum, 2 min, read-out: Regional uptake, Cerebellum",1.61 ± 0.403 %ID/g
same,tissue uptake at 0.5 h,"[1]; cerebellum, 30 min, read-out: Regional uptake, Cerebellum",0.379 ± 0.009 %ID/g
same,tissue uptake at 1 h,"[1]; cerebellum, 60 min, read-out: Regional uptake, Cerebellum",0.215 ± 0.025 %ID/g
same,tissue uptake at 2 min,"[1]; cortex, 2 min, read-out: Regional uptake, Cortex",2 ± 0.038 %ID/g
same,tissue uptake at 0.5 h,"[1]; cortex, 30 min, read-out: Regional uptake, Cortex",0.265 ± 0.086 %ID/g
same,tissue uptake at 1 h,"[1]; cortex, 60 min, read-out: Regional uptake, Cortex",0.206 ± 0.022 %ID/g
same,tissue uptake at 2 min,"[1]; hippocampus, 2 min, read-out: Regional uptake, Hippocampus",1.63 ± 0.222 %ID/g
same,tissue uptake at 0.5 h,"[1]; hippocampus, 30 min, read-out: Regional uptake, Hippocampus",0.261 ± 0.064 %ID/g
same,tissue uptake at 1 h,"[1]; hippocampus, 60 min, read-out: Regional uptake, Hippocampus",0.216 ± 0.02 %ID/g
same,tissue uptake at 2 min,"[1]; hypothalamus, 2 min, read-out: Regional uptake, Hypothalamus",1.83 ± 0.233 %ID/g
same,tissue uptake at 0.5 h,"[1]; hypothalamus, 30 min, read-out: Regional uptake, Hypothalamus",0.251 ± 0.009 %ID/g
same,tissue uptake at 1 h,"[1]; hypothalamus, 60 min, read-out: Regional uptake, Hypothalamus",0.254 ± 0.033 %ID/g
same,tissue uptake at 2 min,"[1]; rem, 2 min, read-out: Regional uptake, REM",1.67 ± 0.224 %ID/g
same,tissue uptake at 0.5 h,"[1]; rem, 30 min, read-out: Regional uptake, REM",0.281 ± 0.076 %ID/g
same,tissue uptake at 1 h,"[1]; rem, 60 min, read-out: Regional uptake, REM",0.218 ± 0.025 %ID/g
same,tissue uptake at 2 min,"[1]; striatum, 2 min, read-out: Regional uptake, Striatum",1.62 ± 0.236 %ID/g
same,tissue uptake at 0.5 h,"[1]; striatum, 30 min, read-out: Regional uptake, Striatum",0.263 ± 0.08 %ID/g
same,tissue uptake at 1 h,"[1]; striatum, 60 min, read-out: Regional uptake, Striatum",0.212 ± 0.029 %ID/g
same,regional uptake in the different area of the brain,"[1]; rats, brain",no regional uptake was observed
"CCCN(CCC)C1CCc2ccc(O)c(I)c2C1 (stereo not drawn) [8-I-7-OH-DPAT, 7Hydroxy-8-Iodo-2-N,N-n-Dipropylaminotetralin]",HC D2,D2 dopamine receptor,0.92
same,Ki,D2 dopamine receptor; [3],0.353 ± 0.031 µM
same,Ki,D3 dopamine receptor,0.0213 ± 0.0029 µM
same,HC D3,D3 dopamine receptor,0.85
same,Ratio D2/D3,D3 dopamine receptor; Table 4 and its discussion,16.6
CCN1CCC[C@H]1CNC(=O)c1c(O)c(Cl)cc(Cl)c1OC [Raclopride],Hill Co.,[2],0.78
same,Ki,[2],0.00925 ± 0.0023 µM
"C#CCN(CCC)C1CCc2ccc(O)cc2C1 (stereo not drawn) [7-OH-PPAT, 7Hydroxy-2-(-Propargyl-N-n-Propyl)-Aminotetralin]",affinity for the D2 receptor,D2 dopamine receptor,three-fold less active than 7-OH-DPAT
same,HC D2,D2 dopamine receptor,0.99
same,Ki,D2 dopamine receptor; [3],0.378 ± 0.045 µM
same,Ki,D3 dopamine receptor,0.0092 ± 0.0006 µM
same,affinity / selectivity for the D3 receptor,D3 dopamine receptor,three-fold less active than 7-OH-DPAT
same,HC D3,D3 dopamine receptor,0.80
same,Ratio D2/D3,D3 dopamine receptor; Table 4 and its discussion,41.1
"CCCN(CCC)C1CCc2cccc(O)c2C1 (racemic) [8-OH-DPAT, 8-hydroxy-2-(di-n-propylamino)tetralin]",Hill Co.,[2],0.78
"CCCNC1CCc2ccc(O)cc2C1 (stereo not drawn) [7-OH-MPAT, 7Hydroxy-2-N-n-Propylaminotetralin]",HC D2,D2 dopamine receptor,0.80
same,Ki,D2 dopamine receptor; [3],0.62 ± 0.124 µM
same,Ki,D3 dopamine receptor,0.00325 ± 0.00045 µM
same,affinity / selectivity for the D3 receptor,D3 dopamine receptor,comparative affinity as 7-OH-DPAT for D3 receptors
same,HC D3,D3 dopamine receptor,0.80
same,Ratio D2/D3,D3 dopamine receptor; Table 4 and its discussion,191
CN1CCc2cc(Cl)c(O)cc2[C@@H](c2ccccc2)C1 [SCH23390],Hill Co.,[2],0.80
same,affinity for the D3 receptor,[2],moderate to low affinity
"CCCNC1CCc2ccc(OC)cc2C1 (stereo not drawn) [7-MeO-MPAT, 7Methoxy-2-N-n-Propylaminotetralin]",Ki,D2 dopamine receptor,5.176 ± 0.00096 µM
same,HC D2,D2 dopamine receptor,0.96
same,Ki,D3 dopamine receptor,1.31 ± 0.249 µM
same,HC D3,D3 dopamine receptor,0.97
same,Ratio D2/D3,D3 dopamine receptor; Table 4 and its discussion,4.0
"CCCN(CCC)C1CCc2ccc(O)c([123I])c2C1 (stereo not drawn) [[^123 I]-7-OH-DPAT, reference compound]",Brain uptake,[1]; 2 min,1.55 ± 0.21
same,Brain uptake,[1]; 30 min,0.54 ± 0.13
same,tissue uptake at 2 min,"[1]; in vivo, 2 min, read-out: Regional uptake, Cerebellum",0.81 ± 0.14 %ID/g
same,tissue uptake at 2 min,"[1]; in vivo, 2 min, read-out: Regional uptake, Cortex",1.1 ± 0.12 %ID/g
same,tissue uptake at 2 min,"[1]; in vivo, 2 min, read-out: Regional uptake, Hippocampus",0.78 ± 0.09 %ID/g
same,tissue uptake at 2 min,"[1]; in vivo, 2 min, read-out: Regional uptake, Striatum",0.85 ± 0.07 %ID/g
same,tissue uptake at 0.5 h,"[1]; in vivo, 30 min, read-out: Regional uptake, Cerebellum",0.25 ± 0.09 %ID/g
same,tissue uptake at 0.5 h,"[1]; in vivo, 30 min, read-out: Regional uptake, Cortex",0.29 ± 0.12 %ID/g
same,tissue uptake at 0.5 h,"[1]; in vivo, 30 min, read-out: Regional uptake, Hippocampus",0.31 ± 0.07 %ID/g
same,tissue uptake at 0.5 h,"[1]; in vivo, 30 min, read-out: Regional uptake, Striatum",0.31 ± 0.08 %ID/g
same,brain washout,"[1]; rats, brain",rapidly washed out of the brain
same,regional uptake in the different area of the brain,"[1]; rats, brain",no regional uptake was observed
COC(=O)[C@@H]1[C@H]2C[C@H]3c4[nH]c5ccccc5c4CCN3C[C@@H]2CC[C@@H]1O [Yohimbine],Hill Co.,[2],0.97
same,affinity for the D3 receptor,[2],moderate to low affinity
same,Ki,[2],2.43 ± 0.146 µM
NCCc1c[nH]c2ccc(O)cc12 [5-HT],Hill Co.,[2],0.90
same,Ki,[2],2.34 ± 0.42 µM
"CCCN(CCC)C1CCc2ccc(OC)cc2C1 (stereo not drawn) [7-MeO-DPAT, 7Methoxy-2-N,N-n-Dipropylaminotetralin]",Ki,D2 dopamine receptor,2.17 ± 0.216 µM
same,HC D2,D2 dopamine receptor,0.95
same,Ki,D3 dopamine receptor,0.28 ± 0.036 µM
same,HC D3,D3 dopamine receptor,0.98
same,Ratio D2/D3,D3 dopamine receptor; Table 4 and its discussion,7.7
"COc1ccc2c(c1)CC(NCc1ccccc1)CC2 (stereo not drawn) [7-MeO-BAT, 7Methoxy-2-N-Benzylaminotetralin]",HC D2,D2 dopamine receptor,0.78
same,Ki,D2 dopamine receptor; [3],5.88 ± 0.471 µM
same,HC D3,D3 dopamine receptor,0.80
same,Ratio D2/D3,D3 dopamine receptor; Table 4 and its discussion,3.1
same,Ki,D3 dopamine receptor; [4],1.87 ± 0.224 µM
"Oc1ccc2c(c1)CC(NCc1ccccc1)CC2 (stereo not drawn) [7-OH-BAT, 7Hydroxy-2-N-n-Benzylaminotetralin]",HC D2,D2 dopamine receptor,0.80
same,Ki,D2 dopamine receptor; [3],1.86 ± 0.261 µM
same,affinity / selectivity for the D3 receptor,D3 dopamine receptor,lowest affinity for the D3 receptor
same,HC D3,D3 dopamine receptor,1.00
same,Ratio D2/D3,D3 dopamine receptor; Table 4 and its discussion,4.8
same,Ki,D3 dopamine receptor; [4],0.391 ± 0.047 µM
